Source: US20010010922A1, “CLONING AND USES OF THE GENETIC LOCUS BCL-6” (priority 1994, published 2001)
Entries after “also recorded” stand apart in the source; their conditions may differ. Peptide text beside a SMILES is read from it. * marks the point of attachment. Cbz = O=C(OCc1ccccc1)*

Columns and labels:
[1] = system: BCL-6; experiment: Anti-IgM treatment of Ramos cells, Western blot of BCL-6; type: cell-based, human; conditions: inhibitor 50 μM added 30 min (PD098059) or 1 hr (MG132) before anti-IgM
Experimental: FIGS. 23A-23E. BCL-6 is phosphorylated and degraded by antigen receptor signaling in B cells. Ramos cells ([…]) were treated with anti-IgM ([…]) and harvested at different time points after treatment as indicated. (FIG. 23A) (Top three panels) Equal amounts of cell extracts were used for Western blot analysis using anti-BCL-6 (top), or anti-ERK2 (middle) antibodies, and for solid phase ERK2 kinase assays (MBP, bottom); Equal amounts of RNAs (10 μg) were used for Northern blot analysis with BCL-6 or GAPDH probes (bottom). (FIG. 23B) Hyperphosphorylated BCL-6 proteins are more unstable. […] Cell extracts were immunoprecipitated with anti-BCL-6 antibodies and analyzed by SDS-PAGE followed by autoradiography. […] Equal amounts of cell extracts were loaded on 7% (HA-BCL-6 or HA-BCL-6Ala333,343) or 10% SDS-PAGE (HA-BCL-6ZF) and the amount of exogenous BCL-6 proteins were analyzed by Western blot using anti-HA antibodies (12CA5).
(§1) Total RNA were isolated from cells by using Trizol-reagents (GIBCO-BRL) and equal amounts of RNA were separated on 1% formaldehyde-agarose gel. […] For Ramos cells and their stable transfectants (untreated or treated), equal amounts of protein were analyzed by 8% or 10% SDS-PAGE, and subsequently by Western blot analysis using anti-BCL-6 (N-70-6), anti-ERK2 (C-14) or anti-HA (12CA5) antibodies at 1:3000, 1:1000 or 1:500 dilutions. […]

[2] = system: BCL-6; experiment: MEK-2E mediated degradation of BCL-6 in transfected 293T cells, Western blot; type: cell-based; conditions: 293T cells transfected with BCL-6 and MEK-2E; inhibitor 50 μM added 8 hrs after transfection
Experimental: (§2) FIGS. 22A-22B MAPK-induced BCL-6 degradation is mediated by the ubiquitin/proteasome pathway. (FIG. 22A) Western blot analysis of BCL-6 proteins in 293T cells transfected with BCL-6 in the absence or presence of co-transfected MEK-2E treated with 0.2% DMSO (lanes 1-3), 50 μM Calpain inhibitor II (lanes 4-6), or 50 μM MG132 (lanes 7-9) (added 8hrs after transfection). (FIG. 22B) 293T cells were transfected with BCL-6, His-Ub, and MEK-2E in the absence (lanes 1-4) or presence of MG132 (lanes 5-8). Cell lysates were immunoprecipitated with anti-BCL-6 antibodies (N-70-6) and the immunoprecipitants were analyzed by 6% SDS-PAGE followed by Western blot analysis using anti-ubiquitin antibodies.
293T cells, grow in DMEM, 10% FBS, were transfected transiently with various DNA vectors using standard calcium phosphate precipitation methods. […]
as §1

[3] = system: BCL-6/ubiquitin conjugates; experiment: In vivo ubiquitination assay in transfected 293T cells (anti-BCL-6 immunoprecipitation, anti-ubiquitin Western blot); type: cell-based
Experimental: as §2, with “antibodies. […]” for “antibodies.”
Therefore, we tested whether MEK-2E mediated degradation of BCL-6 in transfected 293T cells could be inhibited by the proteasome inhibitor Cbz-LLL (MG132) (Kim and Maniatis, 1996; Palombella et al., 1994; Rock et al., 1994). […] Because the addition of multiple ubiquitins to the proteolysis substrate is a key step preceding target degradation by the proteasome, we then tested whether BCL-6/ubiquitin conjugates in vivo could be detected. […] Cell lysates were subjected to immunoprecipitation with anti-BCL-6 antibodies, and the immunoprecipitates were analyzed by Western blotting using anti-ubiquitin antibodies. […]

SMILES | inhibition of anti-IgM-induced BCL-6 degradation [1] | inhibition of MEK-2E mediated BCL-6 degradation [2] | multi-ubiquitinated forms of BCL-6 (BCL-6/ubiquitin conjugates) ([3]; 293T cells transfected with BCL-6, His-Ub and MEK-2E, MG132 50 μM (lane 8)) | multi-ubiquitinated forms of BCL-6 (BCL-6/ubiquitin conjugates) ([3]; 293T cells transfected with BCL-6 and His-Ub, no MEK-2E, MG132 50 μM (lane 7))
COc1cccc(-c2cc(=O)c3ccccc3o2)c1N [PD098059] | inhibited; also recorded: prevented | – | – | –
CC(C)C[C@@H](C=O)NC(=O)[C@H](CC(C)C)NC(=O)[C@H](CC(C)C)NC(=O)OCc1ccccc1 [MG132, N-CBZ-Leu-Leu-Leu-AL] (Cbz-Leu-Leu-Leu-aldehyde) | specifically inhibited; also recorded: prevented | prevented; also recorded: completely inhibited | detectable at high levels | low levels were detectable
CSCC[C@@H](C=O)NC(=O)[C@H](CC(C)C)NC(=O)[C@H](CC(C)C)NC(C)=O [calpain inhibitor II] (Ac-Leu-Leu-Met-aldehyde) | – | not | – | –
